# Source: patent US6514732B1, “Process for preparing baccatin” (Indena S.p.A., priority 1998, dated 2003)
# Entries after “also recorded” stand apart in the source; their conditions may differ.
# Legend:
# Format in all cases: biochemical, Taxus chinensis
# [1] = system: acetyl transferase (acetyl CoA 10-hydroxytaxane-O-acetyl transferase); test: Substrate specificity of the purified acetyl transferase (conversion of taxane substrates with [2-14C]acetyl CoA); details: for Conversion, based on the conversion of 10-deacetyltaxuyunnanin C / pkat (enzyme activity with the substrate): Enzyme: Phenylsepharose eluate (225-fold purified); for acetylation / acceptance as substrate by the enzyme (in words): purified acetyl transferase, acetyl donor acetyl CoA
# Description: A sufficient amount of the enzyme solution to be tested was pipetted into 50 μl of tris buffer (0.8 M, pH 8.5) in an Eppendorf cap. 30 μl of purified acetyl CoA (5 nmol of unlabelled and 0.02 μCi-[2-^14C]acetyl coenzyme A) and 15 nmol of a 3 mM stock solution of 10-deacetyltaxuyunnanin C dissolved in DMSO were then added (for the control only the corresponding amount of DMSO instead of this taxane). The mixture was incubated at 35° C. for 30 minutes and then acidified using 20 μl of 12% H2SO4, the taxuyunnanin C formed was extracted using 600 μl of tert-butyl methyl ether (10 min. in an overhead shaker) and the mixture was then centrifuged (4 min at 14,000 rpm in an Eppendorf centrifuge). The unreacted [2-^14C]acetyl CoA which was still present remained in the aqueous phase. 500 μl of the organic phase were evaporated to dryness in a stream of air, which simultaneously removed any [2-^14C]acetic acid present which, owing to the earlier acidification, was present as the acid and was therefore volatile. Using a scintillation counter (Multipurpose Scintillation Counter LS 6500, from Beckmann) or a thin-layer radioscanner (Automatic TLC Linear Analyser, from Berthold), the type and the amount of the product formed were determined. The former apparatus was used to determine the conversion and thus the activity of the enzyme using the cpm values counted. With the aid of thin-layer chromatography (TLC) (mobile phase: chloroform:acetonitrile 7:3) and the subsequent evaluation using a radioscanner, it was possible to check whether the radioactivity measured using the scintillation counter did indeed correspond to a peak in the region of the Rf value of the expected product.
# To check the substrate specificity of the purified acetyl transferase, various compounds having a taxane skeleton were used as substrate.
# 10-DAB is converted with a rate of conversion of 85%, compared to 10-deacetyltaxuyunnanin C to baccatin III.
# Conversion of Various Substrates, Based on the Conversion of 10-deacetyltaxuyunnanin C
# Enzyme: Phenylsepharose eluate (225-fold purified)
# acetyl transferase [2] = test: KM value determination for acetyl coenzyme A (Lineweaver-Burk); details: phenylsepharose eluate, 225-fold enriched; 30 min at 35° C., pH 8.5
# Description: The affinity of acetyl transferase to acetyl coenzyme A can be described by the KM value, which was determined using the phenylsepharose eluate.
# 100 μl of acetyl transferase (0.25 pcat, 40 ng of protein, 225-fold enriched)
# 5 μl of 3 mM 10-deacetyltaxuyunnanin C (15 nmol)
# 30 min at 35° C. Evaluation was subsequently carried out by extraction with tert-butyl methyl ether and the use of a scintillation counter. By plotting the measured values in a doubly reciprocal manner according to Lineweaver and Burk, the KM value for acetyl coenzyme A was determined at 61 μM.
# acetyl transferase [3] = test: KM value determination for 10-deacetyltaxuyunnanin C (Lineweaver-Burk); details: phenylsepharose eluate, 225-fold enriched; 30 min at 35° C., pH 8.5
# Description: To gain information about the affinity of the acetyl transferase to 10-deacetyltaxuyunnanin C, the KM value of the phenylsepharose eluate was determined.
# 100 μl of acetyl-transferase (0.25 pcat, 40 ng of protein, 225-fold enriched)
# 30 μl of acetyl coenzyme A (5 nmol, additionally containing 0.02 μCi[2-^14C]acetylCoA)
# 30 min at 35° C.; evaluation of the radioactivity, which had been extracted using tert-butyl methyl ether, using a scintillation counter.
# By plotting the measured results in a doubly reciprocal manner according to Lineweaver and Burk, the KM value for 10-deacetyltaxuyunnanin C was determined graphically to be 23 μM.
Molecule,"Conversion, based on the conversion of 10-deacetyltaxuyunnanin C [1] [%]",pkat (enzyme activity with the substrate) [1] [pkat],further results
"CC(=O)O[C@@]12CO[C@@H]1C[C@H](O)[C@@]1(CO)C(=O)[C@H](O)C3=C(C)[C@@H](O)C[C@@](O)([C@@H](OC(=O)c4ccccc4)[C@H]21)C3(C)C [19-Hydroxy-10-DAB III, 19-hydroxy-10-DAB III]",38,0.43,–
"2,10,14-deacetyltaxuyunnanin C [2,10,14-Desacetyltaxuyunnanin C]",81,0.91,–
CC(=O)O[C@@]12CO[C@@H]1C[C@H](OC(=O)OC(C)(C)C)[C@@]1(C)C(=O)[C@H](O)C3=C(C)[C@@H](O)C[C@@](O)([C@@H](OC(=O)c4ccccc4)[C@H]21)C3(C)C [7-BOC-10-DAB III],2,2,acetylation / acceptance as substrate by the enzyme (in words) [1]: not recognized as substrates
"10,14-deacetyltaxuyunnanin C [10,14-Desacetyltaxuyunnanin C]",102,1.14,–
"C=C1C(O)CCC2(C)CC(O)C3=C(C)CC(O)C(C(OC(C)=O)C12)C3(C)C (centres unmarked) [5,10,14-Desacetyltaxuyunnanin C, 5,10,14-deacetyltaxuyunnanin C]",88,0.99,–
CC(=O)SCCNC(=O)CCNC(=O)[C@H](O)C(C)(C)COP(=O)(O)OP(=O)(O)OC[C@H]1O[C@@H](n2cnc3c(N)ncnc32)[C@H](O)[C@@H]1OP(=O)(O)O [acetyl coenzyme A],–,–,Km (acetyl transferase [2]): 61 µM
CC=C(C)C(=O)NC(c1ccccc1)C(O)C(=O)OC1CC2(O)C(OC(=O)c3ccccc3)C3C4(OC(C)=O)COC4CC(O)C3(C)C(=O)C(O)C(=C1C)C2(C)C (centres unmarked) [10-deacetylcephalomannin],–,–,acetylation / acceptance as substrate by the enzyme (in words) [1]: not acetylated; also recorded: acetylation does not take place
"C=C1[C@@H](OC(C)=O)CC[C@@]2(C)C[C@H](O)C3=C(C)C[C@H](OC(C)=O)[C@@H]([C@@H](OC(C)=O)[C@H]12)C3(C)C [10-Desacetyltaxuyunnanin C, 10-deacetyltaxuyunnanin C]",100,1.12,Km (acetyl transferase [3]): 23 µM
CC(=O)O[C@@]12CO[C@@H]1C[C@H](O)[C@@]1(C)C(=O)[C@H](O)C3=C(C)[C@@H](OC(=O)[C@H](O)[C@@H](NC(=O)c4ccccc4)c4ccccc4)C[C@@](O)([C@@H](OC(=O)c4ccccc4)[C@H]21)C3(C)C [10-deacetyltaxol],–,–,acetylation / acceptance as substrate by the enzyme (in words) [1]: not acetylated; also recorded: acetylation does not take place
CC(=O)OC12COC1CC(O)C1(C)C(=O)C(O)C3=C(C)C(O)CC(O)(C(OC(=O)c4ccccc4)C21)C3(C)C (stereo not drawn) [10-epi-10-DAB III],0,0,–
"C=C1C(O)CCC2(C)CC(O)C3=C(C)CC(O)C(C(O)C12)C3(C)C (centres unmarked) [2,5,10,14-Desacetyltaxuyunnanin C, 2,5,10,14-deacetyltaxuyunnanin C]",53,0.59,–
CC[Si](CC)(CC)O[C@H]1C[C@H]2OC[C@@]2(OC(C)=O)[C@H]2[C@H](OC(=O)c3ccccc3)[C@]3(O)C[C@H](O)C(C)=C([C@@H](O)C(=O)[C@]12C)C3(C)C [7-TES-10-DAB III],0,0,acetylation / acceptance as substrate by the enzyme (in words) [1]: not recognized as substrates
"CC(=O)OC12COC1CC(O)C1(C)C(=O)C(O)C3=C(C)C(O)C(O)C(O)(C(OC(=O)c4ccccc4)C21)C3(C)C (centres unmarked) [14-Hydroxy-10-DAB III, 14-hydroxy-10-deacetylbaccatin III]",97,1.09,–
"CC(=O)O[C@@]12CO[C@@H]1C[C@H](O)[C@@]1(C)C(=O)[C@H](O)C3=C(C)[C@@H](O)C[C@@](O)([C@@H](OC(=O)c4ccccc4)[C@H]21)C3(C)C [10-Desacetylbaccatin III, 10-deacetylbaccatin III]",80,0.9,"Conversion, based on the conversion of 10-deacetyltaxuyunnanin C ([1]; listed as 10-DAB): 85%"
